Structures can show the parent of a compound that is named as a salt.
Experiments:
[1] = system: H1N1 A/Netherlands/602/2009 (N09); experiment: microbe, parasite or virus in culture; settings: Influenza A virus, H1N1, A549, 48 h
[2] = system: H1N1 A/Netherlands/602/2009 (N09); experiment: microbe, parasite or virus in culture; format: cell-based, Influenza A virus; settings: for inhibition at 10 µM: Influenza A virus, H1N1, A549, 48 h; for Inhibition (%): 10 µM
in vitro = settings: dog
[3] = system: H1N1 A/Netherlands/602/2009 (N09); experiment: microbe, parasite or virus in culture; format: cell-based; settings: Influenza A virus, H1N1, MDCK, read-out: EC50 (95% CI)
influenza virus = settings: cited from earlier work
[4] = system: H1N1 A/Netherlands/602/2009 (N09); settings: 10 µM
[5] = system: H1N1 A/Netherlands/602/2009 (N09); format: cell-based, Influenza A virus
[6] = system: H1N1 A/Netherlands/602/2009 (N09); format: cell-based, Influenza A virus; remark: listed apart in the source
[7] = system: H1N1 A/Netherlands/602/2009 (N09); format: cell-based, Influenza A virus; remark: listed apart in the source
[8] = system: clinical influenza A strain (H1N1); format: cell-based, Influenza A virus

Row | SMILES | viability at 10 µM [1] | inhibition at 10 µM [2] | CC50 (in vitro) | EC50 [3] | further results
1 | OC(CCN1CCCC1)(c1ccccc1)C1CCCCC1 (stereo not drawn) [Procyclidine hydrochloride] | 91% | 97% |  |  | 
2 | COc1ccc2c(c1)[C@]13CCCC[C@@H]1[C@H](C2)N(C)CC3 [Dextromethorphan hydrobromide monohydrate] | 103% | 100% |  |  | 
3 | CC[C@H](c1ccc(O)cc1)[C@@H](CC)c1ccc(O)cc1 [Hexestrol] |  |  | 46.9 µM | 0.14 µM | 
4 | Oc1ccc(/C=C/c2cc(O)cc(O)c2)cc1 [Resveratrol] |  |  | 52 µM | > 10 µM | Reported inhibition of influenza (influenza virus): inhibit influenza
5 | C=C[C@@](C)(/C=C/c1ccc(O)cc1)CCC=C(C)C [Bakuchiol] |  |  |  | 0.94 µM | CC50 at 24 h (in vitro): 46.2 µM; Reported inhibition of influenza virus (influenza virus): inhibit influenza virus
6 | CCN(CCCc1ccccc1)CCCc1ccccc1.O=C(O)CC(O)(CC(=O)O)C(=O)O [Alverine citrate salt] |  |  |  |  | Inhibition (%) [2]: 99%; Viability (%) [4]: 145%
7 | C/C=C(/C(=C/C)c1ccc(O)cc1)c1ccc(O)cc1 [Dienestrol] |  |  | 32.6 µM | 3.13 µM | 
8 | CC/C(=C(/CC)c1ccc(O)cc1)c1ccc(O)cc1 [Diethylstilbestrol] | 72% | 114% | 9.81 µM |  | Toxicity in Mucilair tissues (MucilAir tissues): absence of toxicity; Inhibition of SARS-CoV-2 (SARS-CoV-2 B.1.1.7): did not inhibit; Inhibition, pre-treatment [5]: good inhibition; Potency when added post-infection [5]: potency of the compound was lost; Attachment of the virus [6]: not inhibited; Viral RNA replication [7]: inhibited; Reduction of viral load [8]: more than one log
9 | CCN(CC)CCNC(C(=O)OCCC(C)C)c1ccccc1.Cl.Cl (stereo not drawn) [Camylofine chlorhydrate] |  |  |  |  | Inhibition (%) [2]: 97%; Viability (%) [4]: 97%
10 | C[C@H](Cc1ccc(O)c(O)c1)[C@@H](C)Cc1ccc(O)c(O)c1 [Masoprocol] |  |  | 84.9 µM | > 10 µM | 

Source: paper PMC10607366 (International Journal of Molecular Sciences, 2023)
